{"source": "patent US20130189764A1", "about": "“SELECTIVE GROWTH MEDIA” (Oxide Limited, priority 2000, published 2013)", "key": {"[1]": {"tested_on": "Salmonella typhimurium OCC 1870", "test": "growth on nutrient agar streak plates, pure culture (Example 2)", "format": "cell-based", "conditions": "S. typhimurium OCC 1870, nutrient agar, 0-10 mM tested", "from_the_text": "Example 1 was repeated, using Salmonella typhimurium OCC 1870 as the test organism. The results are shown in FIG. 3, which uses the same key as FIG. 2."}, "K. pneumoniae CMCC 3077": {"tested_on": "K. pneumoniae CMCC 3077", "test": "growth on nutrient agar, mixed culture with B. subtilis (Example 8)", "format": "cell-based, Klebsiella pneumoniae", "conditions": "K. pneumoniae in mixed culture with B. subtilis, nutrient agar", "from_the_text": "Example 6 was repeated, this time using a mixed culture of B. subtilis OCC 214 and K. pneumoniae CMCC 3077, in the presence of AEP or alaphosphin. The empty columns show the growth of B. subtilis, the shaded columns denote growth of K. pneumoniae."}, "[2]": {"tested_on": "Bacillus subtilis strain OCC 214", "test": "growth on nutrient agar streak plates, pure culture (Example 1)", "format": "cell-based", "conditions": "B. subtilis OCC214, nutrient agar, 0-10 mM tested", "from_the_text": "In example 1 the sensitivity of Bacillus subtilis strain OCC 214 to alaphosphin or AEP was investigated. […] The organism is known to be LALA-ve, so the observations agree with the known characteristics of the organism."}, "[3]": {"tested_on": "Staphylococcus aureus OCC 102", "test": "growth on nutrient agar streak plates, pure culture (Example 5)", "format": "cell-based", "conditions": "S. aureus OCC 102, nutrient agar, 0-10 mM tested", "from_the_text": "Example 1 was repeated using Staphylococcus aureus OCC 102 as the test organism."}, "[4]": {"tested_on": "Salmonella typhimurium OCC 722", "test": "Bioscreen growth, comparison with conventional selective agents (Example 12)", "format": "cell-based", "conditions": "60 μg/ml alaphosphin, Lab-Lemco broth + phosphate buffer pH 6.0", "experimental": "(§1) The following is an example to illustrate the beneficial lower toxic properties of the new selective agents towards the target microorganism, in this case Salmonella. Two selective agents, cefsulodin and novobiocin, as used conventionally in Salmonella isolation from foods (Humphrey and Whitehead, 1992 British Poultry Science 33, 761-768) were compared with alaphosphin. All were dissolved in deionised water, filter sterilised, and an amount of the solution added to either autoclaved Lab-Lemco broth+phosphate buffer (20 g/l; pH 6.0; ala-AEP) or Buffered Peptone Water (pH 6.8; cefsulodin and novobiocin) to give final concentrations of 66, 16.5 and 11 μg/ml respectively. [The different pH values reflect the different pH optima of the selective agents (ala-AEP was also subsequently used in BPW at pH 6.8 and similar results obtained)]. Volumes (300 μl) were then pipetted into the wells of Bioscreen microtitre plates and 30 μl quantities of 1 in 10,000 dilutions of overnight cultures of E. coli OCC 2129 and Salmonella typhimurium OCC 722, added. Plates were then covered, incubated at 37° C., and the opacity of the organism suspensions measured using a Bioscreen instrument.\n(§2) Typical results are shown in FIGS. 17-19, which are graphs of optical density against time for S. typhimurium (circles) and E. coli (squares) in the presence (empty symbols) or absence (filled symbols) of 15 μg/ml cefsulodin (FIG. 17), 10 μg/ml novobiocin (FIG. 18) or 60 μg/ml alaphosphin (FIG. 19)."}, "[5]": {"tested_on": "Salmonella typhimurium 722", "test": "MIC in DMSal medium (Example 17)", "format": "cell-based", "conditions": "Salmonella enterica, TYPHIMURIUM", "experimental": "(§3) Isoleucyl-AEP and sarcosyl-alanyl-AEP were compared to ala-AEP (all in DMSal medium) for the ability to selectively recover two clinically important pathogenic bacteria: Salmonella and Staphylococcus aureus.\nFor selective growth of Salmonella inhibition of Citrobacter, Enterobacter sakazakii and E. coli is important. […] Sarcosyl-alanyl-AEP used at a concentration of 1.0 μg/ml is sufficient to inhibit the growth of all three undesired bacteria while having no effect on growth of Salmonella typhimurium. […] Alternatively, a concentration of 2.0 μg/ml of isoleucyl-AEP is required to inhibit the growth of Citrobacter, Enterobacter sakazakii and E. coli and this concentration has no effect on the Salmonella typhimurium strain tested."}, "E. coli strains": {"tested_on": "E. coli strains", "test": "inhibition of E. coli strains on DMSal agar for selective growth of Salmonella (Example 16)", "format": "cell-based, Escherichia coli", "conditions": "DMSal agar", "experimental": "The experiments were conducted as follows: nutrient agar medium was autoclaved and, on cooling (but prior to setting) filter-sterilised alaphosphin or AEP were incorporated at final concentrations of 1 mM, 2 mM, 5 mM and 10 mM, and the medium used to pour plates. Control plates were prepared using nutrient agar without alaphosphin or AEP. A single colony of the organism under test was inoculated in 10 ml of nutrient broth and incubated (without agitation) at 37° C. for 4 hours.\nTrp-AEP was compared to alaphosphin (Ala-AEP) for selective growth of Salmonella strains on DMSal agar."}, "E. coli OCC 2129": {"tested_on": "E. coli OCC 2129", "test": "Bioscreen growth, comparison with conventional selective agents (Example 12)", "format": "cell-based, Escherichia coli", "conditions": "60 μg/ml alaphosphin", "experimental": "as §1, §2"}, "S. aureus ss aureus 2355": {"tested_on": "S. aureus ss aureus 2355", "test": "MIC in DMSal medium (Example 17)", "format": "cell-based", "conditions": "Staphylococcus aureus", "from_the_text": "as §3"}, "[6]": {"tested_on": "Enterococcus faecalis 581", "test": "MIC in DMSal medium (Example 17)", "format": "cell-based", "conditions": "Enterococcus faecalis, 581", "from_the_text": "as §3"}, "S. aureus (MRSA) 934": {"tested_on": "S. aureus (MRSA) 934", "test": "MIC in DMSal medium (Example 17)", "format": "cell-based", "conditions": "Staphylococcus aureus, MRSA", "from_the_text": "as §3"}, "S. aureus 198": {"tested_on": "S. aureus 198", "test": "MIC in DMSal medium (Example 17)", "format": "cell-based", "conditions": "Staphylococcus aureus, 198", "from_the_text": "as §3"}, "[7]": {"tested_on": "Enterococcus faecalis 501", "test": "MIC in DMSal medium (Example 17)", "format": "cell-based", "conditions": "Enterococcus faecalis, 501"}, "[8]": {"tested_on": "Klebsiella pneumoniae CMCC3077", "test": "total viable count in Nutrient Broth (Example 10)", "format": "cell-based", "conditions": "5 mM in Nutrient Broth, within a 4 hour period", "experimental": "Growth curve data on the activity of alaphosphin towards Klebsiella spp. was generated. Particular attention was paid to measuring the kinetics of inhibition in broth culture. The media used in this work were Buffered Peptone Water, Nutrient Broth and Tryptone Soya Agar. The media were prepared according to the manufacturer's instructions.\nThe selective agents, AEP (Cat. No. 06655) and alaphosphin (Cat. No. 05260), were supplied by Fluka. They were dissolved in water at 0.5M concentration, filter-sterilised, and 100 μl added to 10 ml of Nutrient Broth to give a final concentration in the test medium of 5 mM of AEP or alaphosphin respectively.\nKlebsiella pneumnoniae CMCC3077 was chosen, as it is a food isolate and work had been carried out previously on this organism using alaphosphin and AEP (see preceding examples). The organism was inoculated into Nutrient Broth and incubated overnight at 37° C. […] The test media were incubated at 37° C., and sampled at hourly intervals. The cultures were serially diluted in Buffered Peptone Water and inoculated onto Tryptone Soya Agar. These plates were incubated overnight at 37° C. and the total viable count made the next day.\nTypical results are shown in FIG. 15 which is a graph of total viable count (log10 cfu/ml) against time (hours)."}, "E. coli 607": {"tested_on": "E. coli 607", "test": "MIC in DMSal medium (Example 17)", "format": "cell-based", "conditions": "Escherichia coli, 607"}}}
{"smiles": "C[C@H](N)C(=O)N[C@@H](C)P(=O)(O)O", "note": "[alaphosphin, L-alanyl-L-1-aminoethylphosphonic acid]", "values": [{"measurement": "concentration at which growth is completely inhibited", "setting": "[1]", "result": "≥ 5", "unit": "mM"}, {"measurement": "concentration at which growth is completely inhibited", "setting": "K. pneumoniae CMCC 3077", "result": "≥ 2", "unit": "mM"}, {"measurement": "sensitivity of growth (in words)", "setting": "[2]", "result": "completely insensitive"}, {"measurement": "concentration at which growth is completely inhibited", "setting": "[3]", "result": 10, "unit": "mM"}, {"measurement": "effect on growth of S. typhimurium", "setting": "[4]", "result": "no significant difference"}, {"measurement": "MIC", "setting": "[5]", "result": 2, "unit": "µg/mL"}, {"measurement": "concentration needed to inhibit the growth of E. coli strains", "setting": "E. coli strains", "result": 1.5, "unit": "µg/mL"}, {"measurement": "growth of E. coli", "setting": "E. coli OCC 2129", "result": "completely inhibited"}, {"measurement": "MIC", "setting": "S. aureus ss aureus 2355", "result": 10, "unit": "µg/mL"}, {"measurement": "MIC", "setting": "[6]", "result": 10, "unit": "µg/mL"}, {"measurement": "MIC", "setting": "S. aureus (MRSA) 934", "result": 25, "unit": "µg/mL"}, {"measurement": "MIC", "setting": "S. aureus 198", "result": 5, "unit": "µg/mL"}, {"measurement": "MIC", "setting": "[7]", "result": 10, "unit": "µg/mL"}, {"measurement": "reduction in the viable count", "setting": "[8]", "result": "two to three log reduction"}, {"measurement": "MIC", "setting": "E. coli 607", "result": 0.1, "unit": "µg/mL"}]}
